Laboratory results taken from patent US20160303184A1, “VANCOMYCIN-SUGAR CONJUGATES AND USES THEREOF” (JAWAHARLAL NEHRU CENTRE FOR ADVANCED SCIENTIFIC RESEARCH …, priority 2013, published 2016).
Values after ≈ are worked out from the molar mass of the structure shown. Read-outs that look alike come from different tables or passages of the source.

Columns and labels:
Assay type in all cases: cell-based
[1] = test system: Methicillin-sensitive S. aureus (MTCC 737); experiment: MIC, micro-dilution broth, MSSA; details: MTCC 737, read-out: MIC MSSA
Protocol: (§1) All test compounds were assayed in a micro-dilution broth format. Stock solutions were made by serially diluting the compounds using autoclaved millipore water or broth media. The antibacterial activity of the compounds was determined against methicillin-sensitive S. aureus (MSSA), methicillin-resistant S. aureus (MRSA), vancomycin-intermediate-resistant S. aureus (VISA), vancomycin-sensitive E. faecium (VSE) and vancomycin-resistant E. faecium (VRE). Bacteria, to be tested, were grown for about 10 h in the suitable media, MSSA, MRSA and VISA were grown in yeast-dextrose broth (about 1 g of beef extract, about 2 g of yeast extract, about 5 g of peptone and about 5 g of NaCl in about 1000 mL of sterile distilled water (pH-7)). For solid media, about 5% agar was used along with above mentioned composition. VSE and VRE were cultured in brain heart infusion broth (Himedia). The bacterial samples were freeze dried and stored at −80° C. About 5 μL of these stocks were added to about 3 mL of the nutrient broth and the culture was grown for about 6 h at about 37° C. prior to the experiments. This 6 h grown culture gives about 10^9 cfu/mL and this was determined by spread plating method. The 6 h grown culture was diluted to give effective cell concentration of about 10^5 cfu/mL which was then used for determining MIC. Compounds were serially diluted, in sterile water (2 fold dilution is employed) in a way that the working concentration was about 10 μM for MSSA, MRSA, and VSE while for VRE and VISA it was about 100 μM. About 50 μL of these serial dilutions were added to the wells of 96 well plate followed by the addition of about 150 μL of bacterial solution. The plates were then incubated at about 37° C., 150 rpm in the incubator and O.D at 600 nm was recorded at an interval of about 10 h and 24 h using TECAN (Infinite series, M200 pro) Plate Reader. Each concentration had triplicate values and the whole experiment was done at least twice and the MIC value was determined by taking the average of triplicate. O. D. values for each concentration and plotting it against concentration. The data was then subjected to sigmoidal fitting. From the curve the MIC value was determined, as the point in the curve where the O. D. was similar to that of control having no bacteria.

[2] = test system: Methicillin-resistant S. aureus (ATCC 33591); experiment: MIC, micro-dilution broth, MRSA; details: ATCC 33591, read-out: MIC MRSA
Protocol: as §1

[3] = test system: Vancomycin intermediate resistant S. aureus; experiment: MIC, micro-dilution broth, VISA; details: read-out: MIC VISA
Protocol: as §1

[4] = test system: Vancomycin-sensitive E. faecium (ATCC 19634); experiment: MIC, micro-dilution broth, VSE; details: read-out: MIC VSE
Protocol: as §1

[5] = test system: Vancomycin-resistant E. faecium (VanA, ATCC 51559); experiment: MIC, micro-dilution broth, VRE (VanA); details: E. faecium ATCC 51559, read-out: MIC VRE (VanA)
Protocol: as §1

[6] = Enterococcus faecium, ATCC19634, ATCC 19634

MIC ([1]; Staphylococcus aureus)	MIC ([2]; Staphylococcus aureus)	MIC ([3]; Staphylococcus aureus, VISA)	MIC [4, 6]	MIC ([5]; Enterococcus faecium)	MIC [1]	MIC [2]	MIC [3]	MIC ([4]; ATCC 19634)	MIC [5]	SMILES
1.4 µM (≈ 2.32 µg/mL)	1.2 µM (≈ 1.99 µg/mL)	2.4 µM (≈ 3.97 µg/mL)	0.6 µM (≈ 0.993 µg/mL)	> 100 µM						CN[C@H](CC(C)C)C(=O)N[C@H]1C(=O)N[C@@H](CC(N)=O)C(=O)N[C@H]2C(=O)N[C@H]3C(=O)N[C@H](C(=O)N[C@H](C(=O)NCCOC4OC(CO)C(O)C(O)C4O)c4cc(O)cc(O)c4-c4cc3ccc4O)[C@H](O)c3ccc(c(Cl)c3)Oc3cc2cc(c3O[C@H]2OC(CO)[C@H](O)C(O)C2O[C@H]2C[C@@](C)(N)[C@H](O)C(C)O2)Oc2ccc(cc2Cl)[C@H]1O (stereo partly shown) [Compound 1]
					1.2 µM (≈ 1.99 µg/mL)	1.4 µM (≈ 2.32 µg/mL)	2.02 µM (≈ 3.34 µg/mL)	1.2 µM (≈ 1.99 µg/mL)	>100 µM	CN[C@H](CC(C)C)C(=O)N[C@H]1C(=O)N[C@@H](CC(N)=O)C(=O)N[C@H]2C(=O)N[C@H]3C(=O)N[C@H](C(=O)N[C@H](C(=O)NCCOC4OC(CO)C(O)C(O)C4O)c4cc(O)cc(O)c4-c4cc3ccc4O)[C@H](O)c3ccc(c(Cl)c3)Oc3cc2cc(c3O[C@H]2OC(CO)[C@H](O)C(O)C2O[C@H]2C[C@@](C)(N)[C@H](O)C(C)O2)Oc2ccc(cc2Cl)[C@H]1O (stereo partly shown) [Compound 2]
0.6 µM (≈ 1.01 µg/mL)	0.7 µM (≈ 1.18 µg/mL)	0.88 µM (≈ 1.48 µg/mL)	0.5 µM (≈ 0.842 µg/mL)	54 µM (≈ 90.9 µg/mL)						CN[C@H](CC(C)C)C(=O)N[C@H]1C(=O)N[C@@H](CC(N)=O)C(=O)N[C@H]2C(=O)N[C@H]3C(=O)N[C@H](C(=O)N[C@H](C(=O)NCCCNC(=O)[C@H](O)[C@@H](O)[C@H](O)[C@H](O)CO)c4cc(O)cc(O)c4-c4cc3ccc4O)[C@H](O)c3ccc(c(Cl)c3)Oc3cc2cc(c3O[C@H]2OC(CO)[C@H](O)C(O)C2O[C@H]2C[C@@](C)(N)[C@H](O)C(C)O2)Oc2ccc(cc2Cl)[C@H]1O (stereo partly shown) [Compound 3]
0.3 µM (≈ 0.554 µg/mL)	0.38 µM (≈ 0.701 µg/mL)	0.3 µM (≈ 0.554 µg/mL)	0.4 µM (≈ 0.738 µg/mL)	36 µM (≈ 66.4 µg/mL)						CN[C@H](CC(C)C)C(=O)N[C@H]1C(=O)N[C@@H](CC(N)=O)C(=O)N[C@H]2C(=O)N[C@H]3C(=O)N[C@H](C(=O)N[C@H](C(=O)NCCCNC(=O)[C@H](O)[C@@H](O)[C@H](OC4OC(CO)C(O)C(O)C4O)[C@H](O)CO)c4cc(O)cc(O)c4-c4cc3ccc4O)[C@H](O)c3ccc(c(Cl)c3)Oc3cc2cc(c3O[C@H]2OC(CO)[C@H](O)C(O)C2O[C@H]2C[C@@](C)(N)[C@H](O)C(C)O2)Oc2ccc(cc2Cl)[C@H]1O (stereo partly shown) [Compound 4]
1 µM (≈ 1.83 µg/mL)	1 µM (≈ 1.83 µg/mL)	1.08 µM (≈ 1.98 µg/mL)	0.66 µM (≈ 1.21 µg/mL)	> 100 µM						CN[C@H](CC(C)C)C(=O)N[C@H]1C(=O)N[C@@H](CC(N)=O)C(=O)N[C@H]2C(=O)N[C@H]3C(=O)N[C@H](C(=O)N[C@H](C(=O)NCCCNCC(O)C(O)C(OC4OC(CO)C(O)C(O)C4O)C(O)CO)c4cc(O)cc(O)c4-c4cc3ccc4O)[C@H](O)c3ccc(c(Cl)c3)Oc3cc2cc(c3O[C@H]2OC(CO)[C@H](O)C(O)C2O[C@H]2C[C@@](C)(N)[C@H](O)C(C)O2)Oc2ccc(cc2Cl)[C@H]1O (stereo partly shown) [Compound 5]
